“Also recorded” adds a separate entry of the source.
How the values were obtained:
T98G GBM cells = assay: IncuCyte live cell imaging proliferation assay; assay type: cell-based; settings: TMZ (500 μM) plus bromodomain inhibitors (20 μM), FIG. 2
Experimental: T98G GBM cells were treated with TMZ (500 μM), the bromodomain inhibitors (20 μM), and cell proliferation was determined by Incucyte live cell assays using cellular confluence method. The data was normalized to the calculated cell confluence at day 0. Control cells were treated with vehicle (DMSO).
To further characterize the biological activity of selected bromodomain inhibitors, YH-IV-129, YH-IV-181 and YH-IV-191, IncuCyte live cell imaging proliferation assays were performed with the highly TMZ-resistant T98G GBM cell line.

BRG1 bromodomain = molecular target: T1, BRG1 bromodomain (Homo sapiens, UniProt P51532); assay: Cellular thermal shift assay (CETSA), BRG1 bromodomain construct in MT330 cells; assay type: binding; design: binding to the BRG1 BRD: dose or concentration left out as unconfirmed; settings: for thermostability of the BRG1 BRD: 30 μM, heating 44.5° C. to 55.6° C. for 5 min, immunoblot; for binding to the BRG1 BRD: CETSA, FIG. 6C; for selectivity BRG1 versus BRM bromodomain: conclusion from CETSA and knockout cells
T1 construct: expressed in transfected cells; host or cells: MT330 glioblastoma cells
T1 sequence (P51532 1453-1564 limits assumed): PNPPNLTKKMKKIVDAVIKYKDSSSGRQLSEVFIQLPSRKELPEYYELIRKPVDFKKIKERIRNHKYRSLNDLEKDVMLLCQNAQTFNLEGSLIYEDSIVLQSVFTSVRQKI
Experimental: After heating over a temperature range from 44.5° C. to 55.6° C. for 5 min, the cells were lysed, placed on ice at 4° C. and then immunoblotted for BRG1 or actin.
(§1) For the CETSA, MT330 cells expressing the BRM (FIG. 6B), or BRG1 (FIG. 6C) the BRD construct were treated with bromodomain inhibitors […] and immunoblotted as indicated.
(§2) After heating over a temperature range from 44.5° C. to 55.6° C. for 5 min, MT330 cells were lysed and then immunoblotted for BRG1 or BRM.

BRM bromodomain = molecular target: T2, BRM bromodomain (Homo sapiens, UniProt P51531); assay: Cellular thermal shift assay (CETSA), BRM bromodomain construct in MT330 cells; assay type: binding; design: binding to the BRM BRD: dose or concentration left out as unconfirmed; settings: for thermostability of the BRM BRD: heating 44.5° C. to 55.6° C. for 5 min, immunoblot; for binding to the BRM BRD: CETSA, FIG. 6B
T2 construct: expressed in transfected cells; host or cells: MT330 glioblastoma cells
T2 sequence (P51531 1378-1506 limits assumed): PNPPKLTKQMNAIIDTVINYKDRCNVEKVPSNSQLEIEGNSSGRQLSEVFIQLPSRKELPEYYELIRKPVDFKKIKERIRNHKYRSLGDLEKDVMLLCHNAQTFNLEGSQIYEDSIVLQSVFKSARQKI
Experimental: as §1, §2

MT330 GBM cells [1] = assay: Cell death ELISA in MT330 GBM cells; assay type: cell-based; settings: for enhancement of TMZ-induced cell death: 10 mM inhibitor in combination with 200 mM of TMZ, 72 hrs, FIG. 1; for enhancement of bleomycin-induced cell death: bleomycin (0.01 μM) and bromodomain inhibitors (10 μM); for enhancement of bleomycin-induced cell death / cell death, inhibitor alone: 72 hr, FIG. 9; for cell death, inhibitor alone: bromodomain inhibitors (10 μM) alone
Experimental: Control cells were treated with vehicle (DMSO). Cell death was determined at 72 hr after treatment by a cell death ELISA that quantifies histone-complexed DNA fragments. […]
Parental and BRG1 knockout MT330 cells were treated with bleomycin (0.01 μM) and bromodomain inhibitors […]. After 72 hr, cell death was determined by cell death ELISA.
The biological activity of bromodomain inhibitors was assessed for the ability to enhance TMZ-induced cell death. In brief, MT330 cells were treated with […] of bromodomain inhibitors alone, or in combination with […] of TMZ for 72 hrs, and GBM cell death was determined by a commercial ELISA.

[2] = test system: intracranial GBM xenografts (MT330 cells); assay: Orthotopic GBM model, MT330 cells injected into brains of NSG mice; assay type: in vivo; settings: for bioluminescent signal in the brain: combination with TMZ (10 mg/Kg), IV-255 or IV-275 (20 mg/Kg) IP 3 times per week, 3-4 weeks after treatment, versus either agent alone, FIG. 10
Experimental: MT330 cells (10^6) were injected into the brains of NSG female mice. After tumors were identified by BLI (˜10 days post-injection), mice were IP injected with TMZ (60 mg/Kg body weight) or IV-129 (10 mg/Kg) alone or in combination 3 times per week (5 mice per group) for 2 weeks. […] FIG. 5C Kaplan-Meier analysis of the survival data (5 mice/group) of the brain tumor-bearing mice was performed.
MT330 cells […] were injected into the brains of NSG female mice. After tumors were identified by BLI (˜10 days post-injection), mice were IP injected with TMZ (10 mg/Kg body weight), IV-255 or IV-275 (20 mg/Kg) alone or in combination 3 times per week (5 mice/group).
Luciferase-expressing MT330 cells were injected into the brains of immunocompromised NSG mice. Once tumors were identified by bioluminescence imaging (BLI) at ˜10 days after tumor cell injection, mice were subjected to intraperitoneal injection of TMZ or YH-IV-129 alone, or in combination. At 20 days after initiation of treatment, live animal imaging was performed on an IVIS Lumina instrument. […] The mean survival of control mice was 27 days after cell injection (FIG. 5C).
Luciferase-expressing MT330 cells were injected into the brains of immunocompromised NSG mice. Once tumors were identified by bioluminescence imaging (BLI) at ˜10 days after tumor cell injection, mice were subjected to intraperitoneal injection of TMZ or YH-IV-255 or YH-IV-275 alone, or in combination. […] This is compelling preliminary evidence that these two new compounds have potent anticancer activity in intracranial GBM xenografts when combined with standard-of-care TMZ chemotherapy and that these drugs cross the blood-brain barrier.

BRM knockout MT330 cells = assay: Cell death ELISA in BRM knockout MT330 cells; assay type: cell-based; settings: TMZ (500 μM) and bromodomain inhibitors (10 μM), 72 hr, FIG. 7
Experimental: (§3) BRG1 and BRM knockout MT330 cells were treated with TMZ (500 μM) and bromodomain inhibitors (10 μM). After 72 hr, cell death was determined by a cell death ELISA.
(§4) To further characterize the specificity of YH-IV-255 for the BRG1 bromodomain, GBM cell lines were generated with either BRG1 or BRM knocked out by CRISPR/Cas9 gene editing.^14 These cells were isolated by puromycin selection and the knockout of the either subunit was validated by immunoblotting.

[3] = test system: BRG1 knockout MT330 cells; assay: Cell death ELISA in BRG1 knockout MT330 cells; assay type: cell-based; settings: 72 hr
Experimental: as §3
Parental and BRG1 knockout MT330 cells were treated with bleomycin (0.01 μM) and bromodomain inhibitors (10 μM). After 72 hr, cell death was determined by cell death ELISA.
as §4

LN229 GBM cells = assay: γH2Ax immunostaining after TMZ; assay type: cell-based; design: dose or concentration left out as unconfirmed; settings: 24 hrs, FIG. 11
Experimental: After treatment for 24 hrs, cells were fixed and immunostained for gH2Ax. Analysis of immunostaining was performed on a laser confocal microscope.
As TMZ is DNA damaging agent, we tested the ability of various bromodomain inhibitors to enhance TMZ-induced DNA damage as evidence by immunostaining of GBM cells with γH2Ax and examination of the staining on a confocal microscope. γH2AX is the phosphorylated version of the histone variant H2Ax and is a highly specific and sensitive marker for monitoring DNA damage initiation and resolution. […] Similar results were obtained with MT330 GBM cells.

MT330 GBM cells [4] = assay: Cell death ELISA in MT330 GBM cells; assay type: cell-based; settings: for TMZ sensitivity (TMZ-induced cell death): TMZ (500 μM) and bromodomain inhibitors (10 μM), 24 hr, FIG. 6A
MT330 cells = assay: γH2Ax immunostaining after bleomycin; assay type: cell-based; settings: bleomycin alone (0.5 and 2 μM), 1 hr, FIG. 8
Experimental: After 1 hr of bleomycin treatment cell death, cells were fixed and immunostained for γH2Ax. Analysis of immunostaining was performed on at least 1,000 cells on the Lionheart FX imaging system.
Bleomycin is a chemotherapeutic drug that is used to treat various cancers. […] Thus, the ability of bleomycin to induce DNA damage as evidence by immunostaining of MT330 cells and LN229 with γH2Ax was tested. Quantification of cell staining was determined on the Lionheart FX imaging station.

[5] = vehicle control band disappearing at 49.8° C., FIG. 3

COc1ccc(N2C[C@H]3C[C@@H]2CN3C(=O)Nc2ccccc2)cc1 [YH-IV-181, (1R,4R)-5-(4-methoxyphenyl)-N-phenyl-2,5-diazabicyclo[2.2.1]heptane-2-carboxamide]
sensitization to the antiproliferative action of TMZ (T98G GBM cells): potently sensitized T98G GBM cells to the antiproliferative action of TMZ
thermostability of the BRG1 BRD (BRG1 bromodomain; FIG. 3): significantly increased the thermostability
temperature at which the BRG1 BRD protein band is undetectable (BRG1 bromodomain; [5]): 54.20 °C
thermostability of the BRM BRD (BRM bromodomain; FIG. 3): significantly increased the thermostability
temperature at which the BRM BRD protein band is undetectable (BRM bromodomain; [5]): 54.20 °C

COc1ccc(N2C[C@H]3C[C@@H]2CN3C(=O)Oc2ccccc2)cc1 [YH-IV-235, (1R,4R)-phenyl 5-(4-methoxyphenyl)-2,5-diazabicyclo[2.2.1]heptane-2-carboxylate]
enhancement of TMZ-induced cell death (MT330 GBM cells [1]): better efficacy than PFI-3

COc1ccc(N2C[C@H]3C[C@@H]2CN3C(=O)Nc2ccc(F)c(F)c2)cc1 [YH-IV-255, (1R,4R)-N-(3,4-difluorophenyl)-5-(4-methoxyphenyl)-2,5-diazabicyclo[2.2.1]heptane-2-carboxamide]
enhancement of TMZ-induced cell death (MT330 GBM cells [1]): better efficacy than PFI-3; also recorded: somewhat more bioactive than YH-IV-129; also recorded: markedly enhanced TMZ sensitivity of GBM cells in vitro as compared to PFI-3
enhancement of bleomycin-induced cell death (MT330 GBM cells [1]): sensitized GBM cells to bleomycin-induced cell death
cell death, inhibitor alone (MT330 GBM cells [1]): none of the bromodomain inhibitors (YH-IV-129, YH-IV-255 and YH-IV-275) alone had any death inducing activity
binding to the BRG1 BRD (BRG1 bromodomain): bind equivalently to the BRG1 BRD
selectivity BRG1 versus BRM bromodomain (BRG1 bromodomain): selective BRG1 bromodomain inhibitor; also recorded: selective inhibitor the BRG-1 bromodomain
selectivity BRG1 versus BRM bromodomain (BRG1 bromodomain; listed as IV-255): binds selectively to the BRG1 BRD
binding to the BRM BRD (BRM bromodomain): does not bind
bioluminescent signal in the brain [2]: decreased the bioluminescent signal in the brain
enhancement of TMZ-induced cell death (BRM knockout MT330 cells): very similar activity in enhancing the cell death inducing activity in BRM knockout GBM cells; also recorded: sensitized BRM knockout GBM cells
enhancement of TMZ-induced cell death ([3]; TMZ (500 μM) and bromodomain inhibitors (10 μM), FIG. 7): no such activity in BRG1 knockout GBM cells; also recorded: not BRG1 knockout cells
enhancement of bleomycin-induced cell death ([3]; bleomycin (0.01 μM) and bromodomain inhibitors (10 μM), FIG. 9): ablated in BRG1 knockout MT330 cells
γH2Ax staining, inhibitor with TMZ (LN229 GBM cells): marked increase in γH2Ax staining
TMZ sensitivity (TMZ-induced cell death) (MT330 GBM cells [4]): similarly increase the TMZ sensitivity of GBM cells
TMZ sensitivity (TMZ-induced cell death) (MT330 GBM cells [4]; listed as IV-255): potent sensitizer to TMZ-induced cell death

COc1ccc(N2CCN(C(=O)OC(C)(C)C)CC2)cc1 [YH-IV-189, tert-butyl 4-(4-methoxyphenyl)piperazine-1-carboxylate]
thermostability of the BRG1 BRD (BRG1 bromodomain; FIG. 3): only moderately increased the thermostability
thermostability of the BRM BRD (BRM bromodomain; FIG. 3): only moderately increased the thermostability

COc1ccc(N2C[C@H]3C[C@@H]2CN3C(=O)Oc2ccc(F)c(F)c2)cc1 [YH-IV-275, (1R,4R)-3,4-difluorophenyl 5-(4-methoxyphenyl)-2,5-diazabicyclo [2.2.1]heptane-2-carboxylate]
enhancement of TMZ-induced cell death (MT330 GBM cells [1]): better efficacy than PFI-3; also recorded: somewhat more bioactive than YH-IV-129; also recorded: markedly enhanced TMZ sensitivity of GBM cells in vitro as compared to PFI-3
enhancement of bleomycin-induced cell death (MT330 GBM cells [1]): sensitized GBM cells to bleomycin-induced cell death
cell death, inhibitor alone (MT330 GBM cells [1]): none of the bromodomain inhibitors (YH-IV-129, YH-IV-255 and YH-IV-275) alone had any death inducing activity
binding to the BRG1 BRD (BRG1 bromodomain): bind equivalently to the BRG1 BRD
selectivity BRG1 versus BRM bromodomain (BRG1 bromodomain): inhibitor of both BRG1 and BRM domains
binding to the BRM BRD (BRM bromodomain): binds well to the BRM BRD
bioluminescent signal in the brain [2]: decreased the bioluminescent signal in the brain
enhancement of TMZ-induced cell death (BRM knockout MT330 cells): very similar activity in enhancing the cell death inducing activity in BRM knockout GBM cells
γH2Ax staining, inhibitor with TMZ (LN229 GBM cells): marked increase in γH2Ax staining
TMZ sensitivity (TMZ-induced cell death) (MT330 GBM cells [4]): similarly increase the TMZ sensitivity of GBM cells

Cn1nnc2c(C(N)=O)ncn2c1=O [TMZ, temozolomide, reference compound]
mean survival, either agent alone ([2]; TMZ (60 mg/Kg) or IV-129 (10 mg/Kg) alone IP, control mice 27 days, FIG. 5C): 35 days

COc1ccc(N2C[C@H]3C[C@@H]2CN3C(=O)NC(C)(C)C)cc1 [YH-IV-185, (1R,4R)-N-(tert-butyl)-5-(4-methoxyphenyl)-2,5-diazabicyclo[2.2.1]heptane-2-carboxamide]
thermostability of the BRG1 BRD (BRG1 bromodomain; FIG. 3): only moderately increased the thermostability
thermostability of the BRM BRD (BRM bromodomain; FIG. 3): only moderately increased the thermostability

bleomycin [reference compound]
γH2Ax staining, bleomycin alone (MT330 cells): dose dependent increase of γH2Ax staining
cell death, bleomycin alone (MT330 GBM cells [4]; low dose of bleomycin (0.01 µM), 72 hr, FIG. 9): induced low levels of cell death in MT330 cells

COc1ccc(N2C[C@H]3C[C@@H]2CN3C(=O)Nc2ccc(F)cc2)cc1 [YH-IV-211, (1R,4R)-N-(4-fluorophenyl)-5-(4-methoxyphenyl)-2,5-diazabicyclo[2.2.1]heptane-2-carboxamide]
enhancement of TMZ-induced cell death (MT330 GBM cells [1]): better efficacy than PFI-3

Reference: US20240316043A1, “BROMODOMAIN INHIBITORS FOR CANCER THERAPY” (University of Tennessee Research Foundation, priority 2023, published 2024)
